Drawing on US10106504B2, “Pyridin-3-yl acetic acid derivatives as inhibitors of human immunodeficiency virus replication” (priority 2015, dated 2018), this text covers EC50 for 18 compounds.

The first assay relates to NL-RLuc virus. Kind of assay: Inhibition of HIV replication (NL-RLuc virus, luciferase readout in MT-2 cells). In kind it is cell-based. The following applies: Human immunodeficiency virus 1, MT2, 120 h, read-out: Activity. The text has this:
Inhibition of HIV Replication:
A recombinant NL-RLuc proviral clone was constructed in which a section of the nef gene from NL4-3 was replaced with the Renilla Luciferase gene. This virus is fully infectious and can undergo multiple cycles of replication in cell culture. In addition, the luciferous reporter provides a simple and easy method for quantitating the extent of virus growth and consequently, the antiviral activity of test compounds. The plasmid pNLRLuc contains the proviral NL-Rluc DNA cloned into pUC18 at the PvuII site. The NL-RLuc virus was prepared by transfection of 293T cells with the plasmid pNLRLuc. Transfections were performed using the LipofectAMINE PLUS kit from Invitrogen (Carlsbad, Calif.) according to the manufacturer and the virus generated was titered in MT-2 cells. For susceptibility analyses, the titrated virus was used to infect MT-2 cells in the presence of compound, and after 5 days of incubation, cells were processed and quantitated for virus growth by the amount of expressed luciferase. Assay media was RPMI 1640 supplemented with 10% heat inactivated fetal bovine serum (FBS), 100 units/ml penicillin G/100 units/ml streptomycin, 10 mM HEPES buffer pH 7.55 and 2 mM L-glutamine. The results from at least 2 experiments were used to calculate the EC50 values. Luciferase was quantitated using the Dual Luciferase kit from Promega (Madison, Wis.). Susceptibility of viruses to compounds was determined by incubation in the presence of serial dilutions of the compound. The 50% effective concentration (EC50) was calculated by using the exponential form of the median effect equation where (Fa)=1/[1+(ED50/drug conc.)^m] (Johnson V A, Byington R T. Infectivity Assay. In Techniques in HIV Research. ed. Aldovini A, Walker BD. 71-76. New York: Stockton Press. 1990). Activity equal to A refers to a compound having an EC50<100 nM, while B and C denote compounds having an EC50 between 100 nM and 1 uM (B) or >1 uM (C).
For the compound `Cc1ccccc1CN1CCc2cc(-c3c(C)nc(C)c([C@H](OC(C)(C)C)C(=O)O)c3-c3cc(F)c4c(c3C)CCCO4)ccc2C1` [Example 40, (2S)-2-(tert-Butoxy)-2-(4-(8-fluoro-5-methylchroman-6-yl)-2,6-dimethyl-5-(2-(2-methylbenzyl)-1,2,3,4-tetrahydroisoquinolin-6-yl)pyridin-3-yl)acetic Acid], the EC50 was less than 0.1 µM.
In the case of `Cc1ccc(-c2c(-c3ccc4c(c3)CCN(Cc3c(C)cccc3F)C4)c(C)nc(C)c2[C@H](OC(C)(C)C)C(=O)O)cc1` [Example 41, (S)-2-(tert-Butoxy)-2-(5-(2-(2-fluoro-6-methylbenzyl)-1,2,3,4-tetrahydroisoquinolin-6-yl)-2,6-dimethyl-4-(p-tolyl)pyridin-3-yl)acetic Acid], the EC50 was less than 0.1 µM.
The same measure, in the same setting: with `Cc1ccc(-c2c(-c3ccc4c(c3)CCN(Cc3ccccc3F)C4)c(C)nc(C)c2[C@H](OC(C)(C)C)C(=O)O)cc1` [Example 42, (S)-2-(tert-Butoxy)-2-(5-(2-(2-fluorobenzyl)-1,2,3,4-tetrahydroisoquinolin-6-yl)-2,6-dimethyl-4-(p-tolyl)pyridin-3-yl)acetic Acid] the figure was less than 0.1 µM; with `Cc1nc(C)c([C@H](OC(C)(C)C)C(=O)O)c(-c2ccc3c4c(ccnc24)CCO3)c1-c1ccc(OCCc2ccc(F)cc2)cc1` [Example 43, (2S)-2-(tert-Butoxy)-2-(4-(2,3-dihydropyrano[4,3,2-de]quinolin-7-yl)-5-(4-(4-fluorophenethoxy)phenyl)-2,6-dimethylpyridin-3-yl)acetic Acid], 0.1 to 1 µM.
Regarding `Cc1nc(C)c([C@H](OC(C)(C)C)C(=O)O)c(-c2ccc3c(c2)CCCO3)c1-c1ccc(OCCc2ccc(F)cc2F)cc1` [Example 44, (S)-2-(tert-Butoxy)-2-(4-(chroman-6-yl)-5-(4-(2,4-difluorophenethoxy)phenyl)-2,6-dimethylpyridin-3-yl)acetic Acid], the EC50 was less than 0.1 µM.
On the same count and under the same terms, in the case of `Cc1nc(C)c([C@H](OC(C)(C)C)C(=O)O)c(-c2ccc3c(c2)CCCO3)c1-c1ccc(OCCc2ccccc2F)cc1` [Example 45, (S)-2-(tert-Butoxy)-2-(4-(chroman-6-yl)-5-(4-(2-fluorophenethoxy)phenyl)-2,6-dimethylpyridin-3-yl)acetic Acid] it was less than 0.1 µM; in that of `Cc1nc(C)c([C@H](OC(C)(C)C)C(=O)O)c(C2=CCC(C)(C)CC2)c1-c1ccc(OCCc2ccc(F)cc2)cc1` [Example 46, (S)-2-(tert-Butoxy)-2-(4-(4,4-dimethylcyclohex-1-en-1-yl)-5-(4-(4-fluorophenethoxy)phenyl)-2,6-dimethylpyridin-3-yl)acetic Acid], less than 0.1 µM; in that of `Cc1nc(C)c([C@H](OC(C)(C)C)C(=O)O)c(-c2cc(F)c3c(c2)C=CCO3)c1-c1ccc(OCCc2ccc(F)cc2)cc1` [Example 47, (S)-2-(tert-Butoxy)-2-(4-(8-fluoro-2H-chromen-6-yl)-5-(4-(4-fluorophenethoxy)phenyl)-2,6-dimethylpyridin-3-yl)acetic Acid], less than 0.1 µM.
For the compound `Cc1nc(C)c([C@H](OC(C)(C)C)C(=O)O)c(-c2cc(F)c3c(c2)CCCO3)c1-c1ccc(OCCc2ccc(F)cc2)cc1` [Example 48, (S)-2-(tert-Butoxy)-2-(4-(8-fluorochroman-6-yl)-5-(4-(4-fluorophenethoxy)phenyl)-2,6-dimethylpyridin-3-yl)acetic Acid], the EC50 was less than 0.1 µM.
The same measure, in the same setting: with `Cc1cccc(F)c1CN1CCc2cc(-c3c(C)nc(C)c([C@H](OC(C)(C)C)C(=O)O)c3-c3cc(F)c4c(c3)CCCO4)ccc2C1` [Example 49, (S)-2-(tert-Butoxy)-2-(5-(2-(2-fluoro-6-methylbenzyl)-1,2,3,4-tetrahydroisoquinolin-6-yl)-4-(8-fluorochroman-6-yl)-2,6-dimethylpyridin-3-yl)acetic Acid] the figure was less than 0.1 µM; with `Cc1cc(F)ccc1CN1CCc2cc(-c3c(C)nc(C)c([C@H](OC(C)(C)C)C(=O)O)c3-c3cc(F)c4c(c3)CCCO4)ccc2C1` [Example 50, (S)-2-(tert-Butoxy)-2-(5-(2-(4-fluoro-2-methylbenzyl)-1,2,3,4-tetrahydroisoquinolin-6-yl)-4-(8-fluorochroman-6-yl)-2,6-dimethylpyridin-3-yl)acetic Acid], less than 0.1 µM; with `Cc1cccc(Cl)c1CN1CCc2cc(-c3c(C)nc(C)c([C@H](OC(C)(C)C)C(=O)O)c3-c3cc(F)c4c(c3)CCCO4)ccc2C1` [Example 51, (S)-2-(tert-Butoxy)-2-(5-(2-(2-chloro-6-methylbenzyl)-1,2,3,4-tetrahydroisoquinolin-6-yl)-4-(8-fluorochroman-6-yl)-2,6-dimethylpyridin-3-yl)acetic Acid], less than 0.1 µM.
With `Cc1cc(N2CCc3cc(-c4c(C)nc(C)c([C@H](OC(C)(C)C)C(=O)O)c4-c4cc(F)c5c(c4)CCCO5)ccc3C2)ncn1` [Example 52, (S)-2-(tert-Butoxy)-2-(4-(8-fluorochroman-6-yl)-2,6-dimethyl-5-(2-(6-methylpyrimidin-4-yl)-1,2,3,4-tetrahydroisoquinolin-6-yl)pyridin-3-yl)acetic Acid], the EC50 is less than 0.1 µM.
Still for that read-out and setting: with `Cc1nc(C)c([C@H](OC(C)(C)C)C(=O)O)c(-c2cc(F)c3c(c2)CCCO3)c1-c1ccc2c(c1)CCN(c1ncnc3c1cnn3C)C2` [Example 53, (S)-2-(tert-Butoxy)-2-(4-(8-fluorochroman-6-yl)-2,6-dimethyl-5-(2-(1-methyl-1H-pyrazolo[3,4-d]pyrimidin-4-yl)-1,2,3,4-tetrahydroisoquinolin-6-yl)pyridin-3-yl)acetic Acid] the figure was less than 0.1 µM.
The same measure, in the same setting: with `Cc1nc(C)c([C@H](OC(C)(C)C)C(=O)O)c(-c2ccc3c(c2)CCCO3)c1-c1ccc2c(c1)CCN(c1ncnc3c1cnn3C)C2` [Example 54, (S)-2-(tert-Butoxy)-2-(4-(chroman-6-yl)-2,6-dimethyl-5-(2-(1-methyl-1H-pyrazolo[3,4-d]pyrimidin-4-yl)-1,2,3,4-tetrahydroisoquinolin-6-yl)pyridin-3-yl)acetic Acid] the figure was less than 0.1 µM; with `Cc1cc(N2CCc3cc(-c4c(C)nc(C)c([C@H](OC(C)(C)C)C(=O)O)c4-c4ccc5c(c4)CCCO5)ccc3C2)ncn1` [Example 55, (S)-2-(tert-Butoxy)-2-(4-(chroman-6-yl)-2,6-dimethyl-5-(2-(6-methylpyrimidin-4-yl)-1,2,3,4-tetrahydroisoquinolin-6-yl)pyridin-3-yl)acetic Acid], less than 0.1 µM.
Same read-out and setting: in the case of `Cc1cc(F)ccc1CN1CCc2cc(-c3c(C)nc(C)c([C@H](OC(C)(C)C)C(=O)O)c3-c3ccc4c(c3)CCCO4)ccc2C1` [Example 56, (S)-2-(tert-Butoxy)-2-(4-(chroman-6-yl)-5-(2-(4-fluoro-2-methylbenzyl)-1,2,3,4-tetrahydroisoquinolin-6-yl)-2,6-dimethylpyridin-3-yl)acetic Acid] it was less than 0.1 µM; in that of `COc1nccc(N2CCc3cc(-c4c(C)nc(C)c([C@H](OC(C)(C)C)C(=O)O)c4-c4ccc5c(c4)CCCO5)ccc3C2)n1` [Example 57, (S)-2-(tert-Butoxy)-2-(4-(chroman-6-yl)-5-(2-(2-methoxypyrimidin-4-yl)-1,2,3,4-tetrahydroisoquinolin-6-yl)-2,6-dimethylpyridin-3-yl)acetic Acid], less than 0.1 µM.

Staying with this assay, now noted: Human immunodeficiency virus 1, MT2, 120 h, read-out: EC50 μM.
As to `Cc1nc(C)c([C@H](OC(C)(C)C)C(=O)O)c(C2=CCC(C)(C)CC2)c1-c1ccc(OCCc2ccc(F)cc2)cc1` [Example 46, (S)-2-(tert-Butoxy)-2-(4-(4,4-dimethylcyclohex-1-en-1-yl)-5-(4-(4-fluorophenethoxy)phenyl)-2,6-dimethylpyridin-3-yl)acetic Acid], the EC50 was 0.061 µM.
On the same count and under the same terms, with `Cc1nc(C)c([C@H](OC(C)(C)C)C(=O)O)c(-c2ccc3c(c2)CCCO3)c1-c1ccc2c(c1)CCN(c1ncnc3c1cnn3C)C2` [Example 54, (S)-2-(tert-Butoxy)-2-(4-(chroman-6-yl)-2,6-dimethyl-5-(2-(1-methyl-1H-pyrazolo[3,4-d]pyrimidin-4-yl)-1,2,3,4-tetrahydroisoquinolin-6-yl)pyridin-3-yl)acetic Acid] the figure was 0.008 µM.
